# Results filed as inconclusive are left out. Activity calls are given as the source filed them.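 The calls were made as follows: active = fitted activation curve crossing 40% at a concentration no higher than the sample's top valid tested dose; inconclusive = flat fitted curve at 30% to 70% activation, or poor curve fit; inactive = signal decrease, flat curve within 30%, or the rest.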 Peptide text beside a SMILES is read from it. * marks the point of attachment. Boc = CC(C)(C)OC(=O)*; OtBu = CC(C)(C)O*
# Tested on: NIH3T3-HGL HSF-1 response element luciferase, 48 h
# Experiment: sustained heat shock response element induction – cell-based, mouse, luciferase, cherry-pick, dose, confirmation (AID 602296);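 also: test compounds applied by themselves with no MG132 co-treatment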
row,Compound,AC40
1,N#Cc1ccccc1COC(=O)c1cc(=O)c2ccccc2o1,26 µM
2,O=C(c1ccccc1Br)N1CCN(c2ccccc2)CC1,> 26 µM (inactive)
3,COc1ccc(C(=O)Cn2c(C(=O)/C=C/c3ccccc3)nc3ccccc32)cc1,2.39 µM
4,COc1cc(NC(=O)Cc2cccs2)ccc1-n1cnnn1,> 26 µM (inactive)
5,CC(C)(C)C(=O)NCC12C=CC(O1)C1C(=O)N(c3ccccc3)C(=O)C12 (stereo not given),> 26 µM (inactive)
6,O=C1c2cccc3c([N+](=O)[O-])ccc(c23)C(=O)N1O,> 26 µM (inactive)
7,COC(=O)C1NN=C(C(=O)c2ccc(Cl)cc2)C1c1ccc(OC)cc1 (stereo not given),> 26 µM (inactive)
8,COc1ccc(OCc2nnnn2-c2ccccc2)cc1,25.7 µM
9,COc1cccc(Sc2ccccc2/C=N/NC(N)=O)c1,> 26 µM (inactive)
10,CCCCCNC(=O)C1CCC(Cn2c(=S)[nH]c3ccccc3c2=O)CC1 (stereo not given),> 26 µM (inactive)
11,Oc1ccc(NC(=S)Nc2ccccc2)cc1,> 26 µM (inactive)
12,Cc1ccccc1/[N+]([O-])=C/c1cccs1,> 26 µM (inactive)
13,O=C1CC(N2C(=O)/C(=C/C=C/c3ccccc3)SC2=S)C(=O)N1c1ccccc1 (stereo not given),> 26 µM (inactive)
14,Cc1ccc(NN2C(=O)C=C(c3ccccc3)C2=O)cc1,7.33 µM
15,COc1ccc(S(=O)(=O)N2CCC(C(=O)NCc3cccnc3)CC2)cc1C,> 26 µM (inactive)
16,O=C(CC12CCC(CC1)C2)NCc1ccc2c(c1)OCO2,> 26 µM (inactive)
17,NC(=O)CCN1CCN(CCOC2Cc3cc(Cl)ccc3Sc3ccccc32)CC1 (stereo not given),> 26 µM (inactive)
18,Cc1ccccc1NC(=O)C1CCCN(C(=O)NCc2ccccc2)C1 (stereo not given),> 26 µM (inactive)
19,C=CCN(C(=O)CCC(=O)Nc1cc(C)on1)C(C(=O)NC(C)(C)C)c1cccc(OC)c1OC (stereo not given),> 26 µM (inactive)
20,CCCNC(=O)Nc1ccc(C)cc1C,> 26 µM (inactive)
21,COc1cc(CNCC(O)c2ccccc2)ccc1OCc1ccc(Cl)nc1 (stereo not given),> 26 µM (inactive)
22,CN(/C(=N\S(=O)(=O)c1ccccc1)c1ccccc1)c1ccc(O)cc1,> 26 µM (inactive)
23,COc1ccc(OC)c(-n2c(=O)c3ccccc3c3ccccc3c2=O)c1,12.4 µM
24,COc1ccc(/C=C/C(=O)NCCCc2ccccc2)cc1,> 26 µM (inactive)
25,Cc1ccc(=O)n(C(C(=O)NCc2ccco2)C(=O)c2ccc(F)cc2)c1 (stereo not given),> 26 µM (inactive)
26,Cc1ccc(CNC(=O)CSc2ccsc2[N+](=O)[O-])cc1,0.83 µM
27,CC(=O)N1N=C(c2ccccc2)CC1c1ccccc1[N+](=O)[O-] (stereo not given),16 µM

row,Compound,AC40
1,CCc1cccc(NC(=O)c2cccc(S(=O)(=O)N3CCN(C)CC3)c2)c1,> 26 µM (inactive)
2,C/C(=N\NC(=O)c1cccc(N/N=C(\C)c2cc(O)ccc2O)c1)c1cc(O)ccc1O,> 12 µM (inactive)
3,CC(=O)Oc1ccc(Cn2cnc3cc4ccccc4cc32)cc1,14.7 µM
4,CCOc1cc(C(=S)N2CCOCC2)ccc1OS(=O)(=O)c1ccc(C)cc1,> 26 µM (inactive)
5,N#C/C(C(=O)NCc1ccccc1)=C1/N=C(NC(=O)c2ccco2)c2ccccc21,> 26 µM (inactive)
6,CCOc1ccc(-n2cc(C(=O)N3CCC(C)CC3)c3cc(OC)c(OC)cc3c2=O)cc1,25 µM
7,NC(=O)c1nn(-c2ccccc2)nc1NC(=O)CN1CCCCC1,> 26 µM (inactive)
8,COC(=O)C(Cc1ccc(O)cc1)NC(=O)C(CC(=O)OC(C)(C)C)NC(=O)OC(C)(C)C (stereo not given) (Boc-Asp(OtBu)-Tyr-OMe; configuration not given here),16.5 µM
9,Cn1c(CCC(=O)OCC(=O)Nc2ccc(Oc3ccccc3)cc2)nc(=O)c2ccccc21,> 26 µM (inactive)
10,Cc1onc(-c2ccccc2)c1C(=O)N=C(N)c1ccc(C(F)(F)F)cc1,> 26 µM (inactive)
11,Cc1ccc(/C=C2\Oc3cc(OC(=O)N4CCOCC4)ccc3C2=O)cc1,> 26 µM (inactive)
12,CCc1nc(SCC(=O)c2ccc(Cl)s2)c2oc3ccccc3c2n1,18.6 µM
13,COC(=O)C1CCN(C(=O)COC(=O)c2ccc(OC)c(S(=O)(=O)N3CCCc4ccccc43)c2)CC1,9.15 µM
14,COc1ccc(C)cc1Cn1c(S(C)(=O)=O)nc2ccccc21,> 26 µM (inactive)
15,COc1ccc(C)cc1-n1c(=O)c2ccccc2c2ccccc2c1=O,> 26 µM (inactive)
16,COc1ccc(C2CC(=O)c3cnc(N4CCc5ccccc54)nc3C2)cc1OC (stereo not given),> 26 µM (inactive)
17,Cn1c(=O)oc2cc(S(=O)(=O)N3CCCCC3)ccc21,> 26 µM (inactive)
18,Nn1cnnc1N/N=C/c1cc([N+](=O)[O-])c(Cl)cc1Cl,> 26 µM (inactive)
19,Cc1nc(-c2ccc(Cl)cc2)sc1C(=O)CBr,11.5 µM
20,O=C1NC(=S)S/C1=C/c1ccc(OC(=O)c2ccco2)cc1,22.5 µM
21,CC1CC(C)(C)N(C(=O)NC2CCCCC2)c2ccccc21 (stereo not given),12.9 µM
22,CCc1ccc(CN2C(=O)c3ccccc3C2C(=O)NCC2CCCO2)cc1 (stereo not given),> 26 µM (inactive)
23,CCOC(=O)c1c(C)c(C(=O)Nc2ccc3c(c2)OCO3)c(C)n1C,24.1 µM
24,CCn1c(SCC(=O)c2ccc(Cl)cc2)nnc1-c1ccoc1C,11.1 µM
25,NC(=O)c1cc2cc(Br)ccc2oc1=NCc1ccccc1,> 26 µM (inactive)
26,CCCC12CN3CC(C)(CN(C1)C3c1ccc3c(c1)OCO3)C2=O (stereo not given),> 26 µM (inactive)
27,FC(F)(F)c1cccc(NC(=S)NCc2ccccn2)c1,7.35 µM

row,Compound,AC40
1,CCN(C(=O)c1cc2c(=O)[nH]c3ccc(C)cc3c2s1)c1ccccc1F,> 26 µM (inactive)
2,COCCCNCCOc1ccc(C)cc1[N+](=O)[O-],> 26 µM (inactive)
3,C/C(=C\C(=O)Nc1cscc1C)C(=O)O,> 26 µM (inactive)
4,CCOC(=O)c1c(-c2ccc(C)cc2)cn2ccccc12,> 26 µM (inactive)
5,CC(C)(C)NC(=O)c1ccc2c(c1)N(CC(=O)N1CCCCC1)C(=O)C(C)(C)O2,> 26 µM (inactive)
6,Cc1ccc(SCCCCN2CCOCC2)cc1,23.9 µM
7,CCN(CCNC(=O)CN1CCN(Cc2ccc(Cl)cc2)C1=O)c1ccccc1,20.9 µM
8,Cc1ccc(C(=O)NC(=C(Cl)Cl)S(=O)(=O)c2ccc(Cl)cc2)cc1,8.29 µM
9,N#C/C(=C\c1ccc(OCc2ccc(Cl)cc2)cc1)C(=O)Nc1cccc(C(=O)O)c1,2.68 µM
10,O=C(CN1C(=O)/C(=C\c2cccc(Cl)c2)Sc2ccccc21)NCCCN1CCOCC1,> 12 µM (inactive)
11,CCn1nc(C)cc1C(=O)Sc1ccc(Cl)cc1Cl,14.5 µM
12,COc1cccc(-c2nnc(SCc3nc4ccccc4[nH]3)n2N)c1,18.6 µM
13,Cc1ccc2cccc(NC(=O)C(F)(F)F)c2n1,> 26 µM (inactive)
14,O=C(CSc1cccc2cccnc12)N/N=C/c1cccnc1,> 26 µM (inactive)
15,COc1cccc(C2C(C(N)=O)=C(C)Nc3nc(-c4cccc(Cl)c4)nn32)c1 (stereo not given),> 26 µM (inactive)
16,CC1(C)CC(=O)C2=C(C1)Nc1cc3c(cc1C2c1ccc2c(c1)OCO2)OCO3 (stereo not given),7.45 µM
17,Cc1cc(-c2ccc(C(C)C)c(S(=O)(=O)NCCN3CCC(C)CC3)c2)on1,> 26 µM (inactive)
18,COc1cc(C2Nc3ccc4ncccc4c3C3=C2C(=O)CCC3)cc(OC)c1OC (stereo not given),5.44 µM
19,O=C(CN1c2ccccc2S(=O)(=O)c2ccccc21)NCc1ccc(F)cc1,> 26 µM (inactive)
20,Cc1ccc(-c2csc(NC(=O)c3cccc([N+](=O)[O-])c3)n2)cc1,> 26 µM (inactive)
21,CC(=O)NC(=O)NC1OC(=O)C(Cl)=C1Cl (stereo not given),> 26 µM (inactive)
22,Cc1ccccc1-n1nnc2c(=O)oc3ccccc3c21,> 26 µM (inactive)
23,O=c1[nH]n(CC2COC3(CCCCC3)O2)c(=O)c2ccccc12 (stereo not given),5.22 µM
24,O=C1NCC2=C1C(c1ccc(Br)cc1)Nc1ccccc1N2 (stereo not given),3.58 µM
25,CN(C)C(CNC(=O)CCC(=O)c1ccc(Br)cc1)c1ccccc1 (stereo not given),> 26 µM (inactive)
26,O=c1c2ccccc2[nH]c(=S)n1CCC1=CCCCC1,11.3 µM
27,O=C(NNc1c(Cl)cccc1Cl)C1CCC1,23.5 µM

row,Compound,AC40
1,CN1C(=O)C2C(c3ccc(N(C)C)cc3)=NN(Cc3ccccc3)C2C1=O (stereo not given),> 26 µM (inactive)
2,C#CC[N+]1(CC#Cc2ccccc2)CCCCC1,> 26 µM (inactive)
3,Cc1ccc(C)c(CN2C(=O)COc3ccccc32)c1,> 26 µM (inactive)
4,CCOC(=O)CSc1cc(-c2ccccc2)nc2ncnn12,> 26 µM (inactive)
5,COC(=O)C(C)N(C(=O)c1ccc(C(=O)c2ccccc2)cc1)c1c(C)cccc1C (stereo not given),19.3 µM
6,COc1cc(/C=N/NC(=S)NC2CC3C=CC2C3)cc(OC)c1OC (stereo not given),> 26 µM (inactive)
7,Clc1ccc(-c2nc(/C=N/N3CCOCC3)c3ccccn23)cc1,18.3 µM
8,CC(C)Nc1nc(Cl)nc(N(C#N)CN2C(=O)c3ccccc3C2=O)n1,> 26 µM (inactive)
9,COc1cc(/C=C(/C#N)C(=O)c2c(C)[nH]c3ccccc23)ccc1OCC#N,> 26 µM (inactive)
10,O=c1[nH]c2ccccc2n1CCC1CCCCC1,5.36 µM
11,O=C(Nc1cccn(Cc2c(Cl)cccc2Cl)c1=O)c1ccccc1Cl,> 26 µM (inactive)
12,CC(C)=NN1C(=O)c2ccccc2NC1(C)C,> 26 µM (inactive)
13,Cn1cc(C(=O)N/N=C/c2cc(Br)cs2)c2ccccc21,11.3 µM
14,O=c1[nH][nH]c(-c2ccccc2O)c1C(C[N+](=O)[O-])c1ccccc1 (stereo not given),16.9 µM
15,C/C(=N\OC(=O)c1ccc(F)cc1)c1ccc(F)c(F)c1,24.7 µM
16,CCOC(=O)/C(=N/Nc1ccc(Cl)cc1)Sc1nnnn1-c1ccc(C)cc1,> 12 µM (inactive)
17,CCCN(CC(=O)Nc1ccc(Cl)cc1Cl)C(=O)/C=C/c1ccco1,13 µM
18,Nc1nc(SCC(=O)Nc2ccc([N+](=O)[O-])cc2Br)n[nH]1,> 26 µM (inactive)
19,CCC1(c2ccccc2)NC(=O)N(CC(=O)NCc2ccccc2OC)C1=O (stereo not given),> 26 µM (inactive)
20,O=C(CSc1nnc(-c2ccc(F)cc2)c2ccccc12)Nc1ccccc1,18.7 µM
21,Cc1ccc(NC(=O)N2CCCC2C(=O)Nc2c(C)cc(C)cc2C)cc1 (stereo not given),> 26 µM (inactive)
22,C=CCN1C(=O)C(Cc2ccc(OCC)cc2)SC1=Nc1ccc(C(=O)O)cc1 (stereo not given),> 26 µM (inactive)
23,c1ccc2c(Nc3nnc(-c4ccncc4)s3)cccc2c1,1.24 µM
24,CCOc1ccccc1-c1noc(CCCC(=O)NC2CCCCC2)n1,> 26 µM (inactive)

# From PubChem BioAssay AID602296 (Broad Institute, 2012)
